# Test results published in US20240279233A1, “MACROCYCLIC TAK1 INHIBITORS” (Aqilion AB, priority 2021, published 2024).
# Target: human recombinant TAK1-TAB1 Kinase (TAK1 (1-303) and TAB1 (437-end)) (Homo sapiens (Human), UniProt O43318)
# Assay: TAK1 biochemical ADP-Glo kinase assay
# Conditions: 10 μM ATP, MBP substrate; read-out: TAK1 Mean IC50 (nM) @ 10 μM ATP
# Outline: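 Inhibition of human recombinant TAK1-TAB1 kinase was measured with a Promega ADP-Glo luminescence assay in 384-well plates. Compounds in 5% DMSO were pre-incubated 10 min with 2 μl TAK1-TAB1 (7.5 ng/μl) in buffer of Tris pH 7.5, MgCl2, DTT and BSA. MBP substrate and ATP were then added for 1 hour at room temperature. ADP-Glo reagent and kinase detection substrate followed, luminescence was read on an Envision, and IC50 came from non-linear regression.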
# Chain of human recombinant TAK1-TAB1 Kinase (TAK1 (1-303) and TAB1 (437-end)) (O43318 other isoform, or with tags, fused parts or gaps): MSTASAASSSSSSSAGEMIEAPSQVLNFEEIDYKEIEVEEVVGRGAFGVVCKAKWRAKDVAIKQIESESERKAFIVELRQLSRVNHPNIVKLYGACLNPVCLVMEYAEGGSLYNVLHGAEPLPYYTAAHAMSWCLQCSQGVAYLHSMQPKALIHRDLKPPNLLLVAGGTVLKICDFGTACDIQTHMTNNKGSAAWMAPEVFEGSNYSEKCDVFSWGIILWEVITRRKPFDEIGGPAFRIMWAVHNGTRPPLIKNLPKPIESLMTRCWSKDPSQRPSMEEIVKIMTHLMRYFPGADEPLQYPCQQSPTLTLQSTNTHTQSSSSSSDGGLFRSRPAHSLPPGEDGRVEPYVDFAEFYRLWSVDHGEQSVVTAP
row,IC50 [nM],Structure (SMILES)
1,7,"CC1CCCCNC(=O)c2cccc(c2)C(=O)/N=C2\Nc3cccc(C(=O)N4CC5(COC5)C4)c3N21 (stereo not shown) [Example 42, (E)-11-methyl-1^7-(2-oxa-6-azaspiro[3.3]heptane-6-carbonyl)-1^2,1^3-dihydro-1^1H-2,6-diaza-1(2,1)-benzo[d]imidazola-4(1,3)-benzenacycloundecaphane-3,5-dione]"
2,136,"CC1CCCNC(=O)c2cccc(c2)C(=O)Nc2nc3cccc(C(=O)N(C)C)c3n2C1 (stereo not shown) [Example 51, (E)-N,N,10-trimethyl-3,5-dioxo-1^2,1^3-dihydro-1^1H-2,6-diaza-1(2,1)-benzo[d]imidazola-4(1,3)-benzenacycloundecaphane-1^7-carboxamide]"
3,63,"CC1CCCNC(=O)c2cccc(c2)C(=O)Nc2nc3cccc(C(=O)N(C)C)c3n2C1 (stereo not shown) [Example 52, (E)-N,N,10-trimethyl-3,5-dioxo-1^2,1^3-dihydro-1^1H-2,6-diaza-1(2,1)-benzo[d]imidazola-4(1,3)-benzenacycloundecaphane-1^7-carboxamide]"
4,5,"C[C@@H]1CCCCNC(=O)c2cccc(c2)C(=O)/N=C2\Nc3cccc(C(=O)N4CC(C)(O)C4)c3N21 [Example 94, (R,E)-1^7-(3-hydroxy-3-methylazetidine-1-carbonyl)-11-methyl-1^2,1^3-dihydro-1^1H-2,6-diaza-1(2,1)-benzo[d]imidazola-4(1,3)-benzenacycloundecaphane-3,5-dione]"
5,4,"CN1CCN(Cc2ccc3c(c2)N/C2=N\C(=O)c4csc(c4)C(=O)NCCCCCN23)CC1 [Example 104, (1^2E,4^2Z)-1^5-((4-methylpiperazin-1-yl)methyl)-1^2,1^3-dihydro-1^1H-2,6-diaza-1(2,1)-benzo[d]imidazola-4(4,2)-thiophenacycloundecaphane-3,5-dione]"
6,6,"CN1CCN(Cc2ccc3c(c2)N/C2=N\C(=O)c4cc(ccc4F)C(=O)NCCCCCN23)CC1 [Example 105, (E)-4^6-fluoro-1^5-((4-methylpiperazin-1-yl)methyl)-1^2,1^3-dihydro-1^1H-2,6-diaza-1(2,1)-benzo[d]imidazola-4(1,3)-benzenacycloundecaphane-3,5-dione]"
7,5,"C[C@H]1CCCCNC(=O)c2cccc(c2)C(=O)NC2Nc3cccc(N4CCCC4=O)c3N21 (stereo partly drawn) [Example 113, (S,E)-11-methyl-1^7-(2-oxopyrrolidin-1-yl)-1^2,1^3-dihydro-1^1H-2,6-diaza-1(2,1)-benzo[d]imidazola-4(1,3)-benzenacycloundecaphane-3,5-dione]"

# Continued, compound first:
row,Structure (SMILES),IC50 [nM]
1,"CC1CCCCNC(=O)c2cccc(c2)C(=O)/N=C2\Nc3cccc(C(=O)N(C)C4CC(O)C4)c3N21 (stereo not shown) [Example 41, (E)-N-(3-hydroxycyclobutyl)-N,11-dimethyl-3,5-dioxo-1^2,1^3-dihydro-1^1H-2,6-diaza-1(2,1)-benzo[d]imidazola-4(1,3)-benzenacycloundecaphane-1^7-carboxamide]",3
2,"C[C@@H]1CCCCNC(=O)c2cccc(c2)C(=O)Nc2nc3cccc(-c4ncn(C)n4)c3n21 [Example 83, (R)-11-methyl-1^7-(1-methyl-1H-1,2,4-triazol-3-yl)-1^1H-2,6-diaza-1(2,1)-benzo[d]imidazola-4(1,3)-benzenacycloundecaphane-3,5-dione]",6
3,"C[C@@H]1CCCCNC(=O)c2cccc(c2)C(=O)Nc2nc3cccc(-c4ncnn4C)c3n21 [Example 85, (R,E)-11-methyl-1^7-(1-methyl-1H-1,2,4-triazol-5-yl)-1^1H-2,6-diaza-1(2,1)-benzo[d]imidazola-4(1,3)-benzenacycloundecaphane-3,5-dione]",3
4,"CC1CCCCNC(=O)c2cccc(c2)C(=O)Nc2nc3cccc(-c4nccn4C(F)F)c3n21 (stereo not shown) [Example 90, (E)-1^7-(1-(difluoromethyl)-1H-imidazol-2-yl)-11-methyl-1^2,1^3-dihydro-1^1H-2,6-diaza-1(2,1)-benzo[d]imidazola-4(1,3)-benzenacycloundecaphane-3,5-dione]",6
5,"C[C@H]1CCCCNC(=O)c2cccc(c2)C(=O)/N=C2\Nc3cccc(C(=O)N4CC(C)(O)C4)c3N21 [Example 95, (S,E)-1^7-(3-hydroxy-3-methylazetidine-1-carbonyl)-11-methyl-1^2,1^3-dihydro-1^1H-2,6-diaza-1(2,1)-benzo[d]imidazola-4(1,3)-benzenacycloundecaphane-3,5-dione]",6
6,"Cc1nnc(-c2cccc3c2N2/C(=N/C(=O)c4cccc(c4)C(=O)NCCCC[C@@H]2C)N3)n1C [Example 96, (S,E)-1^7-(4,5-dimethyl-4H-1,2,4-triazol-3-yl)-11-methyl-1^2,1^3-dihydro-1^1H-2,6-diaza-1(2,1)-benzo[d]imidazola-4(1,3)-benzenacycloundecaphane-3,5-dione]",11
7,"CN1CCN(Cc2ccc3c(c2)N/C2=N\C(=O)c4ccc(F)c(c4)C(=O)NCCCCCN23)CC1 [Example 103, (E)-4^4-fluoro-1^5-((4-methylpiperazin-1-yl)methyl)-1^2,1^3-dihydro-1^1H-2,6-diaza-1(2,1)-benzo[d]imidazola-4(1,3)-benzenacycloundecaphane-3,5-dione]",3
8,"C[C@H]1CCCCNC(=O)c2cccc(c2)C(=O)/N=C2\Nc3ccnc(N4CCCC4=O)c3N21 [Example 119, (S,E)-11-methyl-1^4-(2-oxopyrrolidin-1-yl)-1^2,1^3-dihydro-1^1H-2,6-diaza-1(2,3)-imidazo[4,5-c]pyridina-4(1,3)-benzenacycloundecaphane-3,5-dione]",7

# Same assay, conditions: 1 mM ATP, MBP substrate; read-out: TAK1 Mean IC50 (nM) @ 1 mM ATP
row,IC50 [nM],Structure (SMILES)
1,6,"C[C@H]1CCCCNC(=O)c2cccc(c2)C(=O)/N=C2\Nc3cccc(C(=O)N4CC[C@@](C)(O)C4)c3N21 [Example 106, (S,E)-1^7-((R)-3-hydroxy-3-methylpyrrolidine-1-carbonyl)-11-methyl-1^2,1^3-dihydro-1^1H-2,6-diaza-1(2,1)-benzo[d]imidazola-4(1,3)-benzenacycloundecaphane-3,5-dione]"
2,4,"C[C@H]1CCCCNC(=O)c2cccc(c2)C(=O)/N=C2\Nc3cccc(C(=O)N4CC(OC5CC5)C4)c3N21 [Example 107, (S,E)-1^7-(3-cyclopropoxyazetidine-1-carbonyl)-11-methyl-1^2,1^3-dihydro-1^1H-2,6-diaza-1(2,1)-benzo[d]imidazola-4(1,3)-benzenacycloundecaphane-3,5-dione]"
3,24,"C[C@H]1CCCCNC(=O)c2cccc(c2)C(=O)/N=C2\Nc3cccc(C(=O)N4C[C@@H]5C[C@H]4CO5)c3N21 [Example 111, (S,E)-1^7-((1S,4S)-2-oxa-5-azabicyclo[2.2.1]heptane-5-carbonyl)-11-methyl-1^2,1^3-dihydro-1^1H-2,6-diaza-1(2,1)-benzo[d]imidazola-4(1,3)-benzenacycloundecaphane-3,5-dione]"
4,8,"C[C@H]1CCCCNC(=O)c2cccc(c2)C(=O)/N=C2\Nc3cccc(C(=O)N4C[C@H]5C[C@@H]4CO5)c3N21 [Example 112, (S,E)-1^7-((1R,4R)-2-oxa-5-azabicyclo[2.2.1]heptane-5-carbonyl)-11-methyl-1^2,1^3-dihydro-1^1H-2,6-diaza-1(2,1)-benzo[d]imidazola-4(1,3)-benzenacycloundecaphane-3,5-dione]"
5,5,"C[C@H]1CCCCNC(=O)c2cccc(c2)C(=O)NC2Nc3cccc(N4CCCC4=O)c3N21 (stereo partly drawn) [Example 113, (S,E)-11-methyl-1^7-(2-oxopyrrolidin-1-yl)-1^2,1^3-dihydro-1^1H-2,6-diaza-1(2,1)-benzo[d]imidazola-4(1,3)-benzenacycloundecaphane-3,5-dione]"
6,3,"C[C@H]1CCCCNC(=O)c2cccc(c2)C(=O)/N=C2\Nc3cccc(C(=O)N4CC5(CCCO5)C4)c3N21 [Example 116, (S,E)-11-methyl-1^7-(5-oxa-2-azaspiro[3.4]octane-2-carbonyl)-1^2,1^3-dihydro-1^1H-2,6-diaza-1(2,1)-benzo[d]imidazola-4(1,3)-benzenacycloundecaphane-3,5-dione]"
7,4,"C[C@H]1CCCCNC(=O)c2cccc(c2)C(=O)/N=C2\Nc3cccc(C(=O)N4CC5(C4)CC(F)(F)CO5)c3N21 [Example 117, (S,E)-1^7-(7,7-difluoro-5-oxa-2-azaspiro[3.4]octane-2-carbonyl)-11-methyl-1^2,1^3-dihydro-1^1H-2,6-diaza-1(2,1)-benzo[d]imidazola-4(1,3)-benzenacycloundecaphane-3,5-dione]"

# Continued, compound first:
row,Structure (SMILES),IC50 [nM]
1,"Cc1nnc(-c2cccc3c2N2/C(=N/C(=O)c4cccc(c4)C(=O)NCCCC[C@@H]2C)N3)n1C [Example 96, (S,E)-1^7-(4,5-dimethyl-4H-1,2,4-triazol-3-yl)-11-methyl-1^2,1^3-dihydro-1^1H-2,6-diaza-1(2,1)-benzo[d]imidazola-4(1,3)-benzenacycloundecaphane-3,5-dione]",7
2,"C[C@H]1CCCCNC(=O)c2cccc(c2)C(=O)/N=C2\Nc3cccc(C(=O)N4CC(OC(F)(F)F)C4)c3N21 [Example 110, (S,E)-11-methyl-1^7-(3-(trifluoromethoxy)azetidine-1-carbonyl)-1^2,1^3-dihydro-1^1H-2,6-diaza-1(2,1)-benzo[d]imidazola-4(1,3)-benzenacycloundecaphane-3,5-dione]",26
3,"C[C@H]1CCCCNC(=O)c2cccc(c2)C(=O)/N=C2\Nc3cccc(C(=O)N4CC5(COC5)C4)c3N21 [Example 114, (S,E)-11-methyl-1^7-(2-oxa-6-azaspiro[3.3]heptane-6-carbonyl)-1^2,1^3-dihydro-1^1H-2,6-diaza-1(2,1)-benzo[d]imidazola-4(1,3)-benzenacycloundecaphane-3,5-dione]",10
4,"C[C@H]1CCCCNC(=O)c2cccc(c2)C(=O)/N=C2\Nc3cccc(C(=O)N4CCC5(COC5)C4)c3N21 [Example 115, (S,E)-11-methyl-1^7-(2-oxa-6-azaspiro[3.4]octane-6-carbonyl)-1^2,1^3-dihydro-1^1H-2,6-diaza-1(2,1)-benzo[d]imidazola-4(1,3)-benzenacycloundecaphane-3,5-dione]",11
5,"[2H]C([2H])([2H])N(C(=O)c1cccc2c1N1/C(=N/C(=O)c3cccc(c3)C(=O)NCCCC[C@@H]1C)N2)C([2H])([2H])[2H] [Example 118, (S,E)-11-methyl-N,N-bis(methyl-d3)-3,5-dioxo-1^2,1^3-dihydro-1^1H-2,6-diaza-1(2,1)-benzo[d]imidazola-4(1,3)-benzenacycloundecaphane-1^7-carboxamide]",15
6,"C[C@H]1CCCCNC(=O)c2cccc(c2)C(=O)/N=C2\Nc3ccnc(N4CCCC4=O)c3N21 [Example 119, (S,E)-11-methyl-1^4-(2-oxopyrrolidin-1-yl)-1^2,1^3-dihydro-1^1H-2,6-diaza-1(2,3)-imidazo[4,5-c]pyridina-4(1,3)-benzenacycloundecaphane-3,5-dione]",22
